Laboratory results published in US11878973B2, “Bicyclic compounds and their uses” (NOVARTIS AG, priority 2021, dated 2024).
Read-outs that look alike come from different tables or passages of the source.

Assays:
[1] = test system: SW48 cells; assay: Proliferation assay SW48 (CellTiterGlo, 96 hours)
Description: The WRN-knockdown insensitive colon carcinoma cell line DLD-1 (RRID: CVCL_0248) was obtained from the Korean Cell Line Bank (KCLB), and used to generate a derivative in which the endogenous WRN gene copies were knocked out by CRISPR-mediated editing using standard CRISPR methods. The resulting cell line, DLD1-WRN—KO, was used to assess potential off-target compound effects.
All cells were maintained at 37° C. in a humidified 5% CO2 incubator.
For data analysis, the assay background signal that was determined in wells containing medium, but no cells, was subtracted from all other data points prior to further calculations. The extent of growth inhibition and potential cell kill was assessed by comparing the ATP levels (measured using CellTiterGlo, Promega) in compound-treated cells with those present at the time of compound addition. […] 100%, 0% and −100% signify absence of growth inhibition, growth stasis, and complete cell kill, respectively. Compound concentrations leading to half-maximal growth inhibition (G150) and residual cell viability at the highest tested compound concentration (Data (cmax), expressed in percent) were routinely calculated. Data analysis can also be carried out using commercially available software designed to derive IC50 values using 4-parameter fits (e.g. GraphPad Prism, XL fit). The reported GI50 values are the geometrical means of at least 2 independent replicates.

[2] = test system: DLD1-WRN-KO cells; assay: Proliferation assay DLD1-WRN-KO (CellTiterGlo, 96 hours; off-target effects); details: read-out: Proliferation Assay DLD1-WRN-KO (GI50)
[3] = target: WRN helicase (Homo sapiens (Human), UniProt Q14191); assay: In vitro enzymatic activity assay on WRN helicase (DNA dependent ATPase assay, ADP-Glo); assay type: biochemical; details: geometric means of at least 2 determinations; read-out: WRN ATPase Activity (IC50)
How it was run: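 DNA-dependent ATPase activity was measured by ADP-Glo luminescent ADP detection after a 30-min room-temperature reaction. The reaction contained 10 nM WRN (residues N517-P1238), 0.2 nM FLAP26 and 300 µM ATP at pH 7.5 with 2 mM MgCl2. Compounds were tested as 10-point half-log series in duplicate; IC50 values are geometric means from at least two independent experiments.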

[4] = Homo sapiens, SW48, read-out: Proliferation Assay SW48 (GI50)
[5] = read-out: Proliferation Assay SW48 (GI50), SW48 cell line, geometric means of at least 2 determinations
[6] = DLD1-WRN-KO cell line, geometric means of at least 2 determinations

Sequence of WRN helicase (Q14191 517-1238): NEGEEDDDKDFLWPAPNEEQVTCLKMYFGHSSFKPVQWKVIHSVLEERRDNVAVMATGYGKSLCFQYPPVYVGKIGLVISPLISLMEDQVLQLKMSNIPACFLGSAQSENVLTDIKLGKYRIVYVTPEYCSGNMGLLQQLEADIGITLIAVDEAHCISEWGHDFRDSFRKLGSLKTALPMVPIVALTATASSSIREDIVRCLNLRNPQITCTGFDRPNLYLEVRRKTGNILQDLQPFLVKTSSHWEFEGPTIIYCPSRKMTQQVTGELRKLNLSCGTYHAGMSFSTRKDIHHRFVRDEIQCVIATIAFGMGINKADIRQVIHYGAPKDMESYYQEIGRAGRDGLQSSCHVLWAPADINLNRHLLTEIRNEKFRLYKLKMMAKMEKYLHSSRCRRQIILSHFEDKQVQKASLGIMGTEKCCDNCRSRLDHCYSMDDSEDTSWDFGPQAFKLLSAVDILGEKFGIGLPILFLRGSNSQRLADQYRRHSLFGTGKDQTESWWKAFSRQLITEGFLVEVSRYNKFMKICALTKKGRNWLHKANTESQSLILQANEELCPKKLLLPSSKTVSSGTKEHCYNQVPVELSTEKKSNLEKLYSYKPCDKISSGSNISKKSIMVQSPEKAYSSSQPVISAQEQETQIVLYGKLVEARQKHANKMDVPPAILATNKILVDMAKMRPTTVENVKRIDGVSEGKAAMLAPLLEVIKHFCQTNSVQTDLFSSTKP

| GI50 [1, 4] [nM] | GI50 ([2]; Homo sapiens) [nM] | IC50 [3] [nM] | GI50 [1, 5] [nM] | GI50 [2, 6] [nM] | Compound |
| --- | --- | --- | --- | --- | --- |
| 50 | > 10000 | 40 |  |  | CCc1c(N2CCN(C(=O)c3nccc(Cl)c3O)CC2)c(=O)n2nc(C3=CCOCC3)nc2n1CC(=O)Nc1ccc(C(F)(F)F)cc1Cl [Example 39, 2-(6-(4-(4-chloro-3-hydroxypicolinoyl)piperazin-1-yl)-2-(3,6-dihydro-2H-pyran-4-yl)-5-ethyl-7-oxo-[1,2,4]triazolo[1,5-a]pyrimidin-4(7H)-yl)-N-(2-chloro-4-(trifluoromethyl)phenyl)acetamide] |
| 100 | > 10000 | 100 |  |  | CCc1c(N2CCN(C(=O)c3ncnc(C)c3O)CC2)c(=O)n2nc(C3=CCOCC3)nc2n1CC(=O)Nc1ccc(C(F)(F)F)cc1C [Example 57, 2-(2-(3,6-dihydro-2H-pyran-4-yl)-5-ethyl-6-(4-(5-hydroxy-6-methylpyrimidine-4-carbonyl)piperazin-1-yl)-7-oxo-[1,2,4]triazolo[1,5-a]pyrimidin-4(7H)-yl)-N-(2-methyl-4-(trifluoromethyl)phenyl)acetamide] |
| 140 | > 10000 | 120 |  |  | CCc1c(N2CCN(C(=O)c3ncnc(C)c3O)CC2)c(=O)n2nc(C3=CCOCC3)nc2n1CC(=O)Nc1cc(F)c(C(F)F)cc1C [Example 53, N-(4-(difluoromethyl)-5-fluoro-2-methylphenyl)-2-(2-(3,6-dihydro-2H-pyran-4-yl)-5-ethyl-6-(4-(5-hydroxy-6-methylpyrimidine-4-carbonyl)piperazin-1-yl)-7-oxo-[1,2,4]triazolo[1,5-a]pyrimidin-4(7H)-yl)acetamide] |
| 380 | > 10000 | 110 |  |  | CCc1c(N2CCN(C(=O)c3ncccc3O)CC2)c(=O)n2nc(N3CCOCC3)nc2n1CC(=O)Nc1ccc(C(F)(F)F)cc1F [Example 11, 2-(5-ethyl-6-(4-(3-hydroxypicolinoyl)piperazin-1-yl)-2-morpholino-7-oxo-[1,2,4]triazolo[1,5-a]pyrimidin-4(7H)-yl)-N-(2-fluoro-4-(trifluoromethyl)phenyl)acetamide] |
| 290 | 9900 | 250 |  |  | CCc1c(N2CCN(C(=O)c3ncccc3O)CC2)c(=O)n2nc(N3CCOCC3)nc2n1CC(=O)Nc1ccc(C(F)(F)F)nc1Cl [Example 10, N-(2-chloro-6-(trifluoromethyl)pyridin-3-yl)-2-(5-ethyl-6-(4-(3-hydroxypicolinoyl)piperazin-1-yl)-2-morpholino-7-oxo-[1,2,4]triazolo[1,5-a]pyrimidin-4(7H)-yl)acetamide] |
|  |  | 150 | 100 | > 10000 | CCc1c(N2CCN(C(=O)c3ncnc(C)c3O)[C@H](C)[C@@H]2C)c(=O)n2nc(C3=CCOCC3)nc2n1CC(=O)Nc1ccc(C(F)(F)F)cc1Cl (single isomer, unassigned) [Example 122] |
| 260 | > 10000 | 180 |  |  | CCc1c(N2CCN(C(=O)c3ncccc3O)CC2)c(=O)n2nc(N3CCCC3)nc2n1CC(=O)Nc1ccc(C(F)(F)F)nc1Cl [Example 18, N-(2-chloro-6-(trifluoromethyl)pyridin-3-yl)-2-(5-ethyl-6-(4-(3-hydroxypicolinoyl)piperazin-1-yl)-7-oxo-2-(pyrrolidin-1-yl)-[1,2,4]triazolo[1,5-a]pyrimidin-4(7H)-yl)acetamide] |
| 190 | > 10000 | 150 |  |  | CCc1c(N2CCN(C(=O)c3nccc(OC(F)(F)F)c3O)CC2)c(=O)n2nc(C3=CCOCC3)nc2n1CC(=O)Nc1ccc(C(F)(F)F)cc1C [Example 67, 2-(2-(3,6-dihydro-2H-pyran-4-yl)-5-ethyl-6-(4-(3-hydroxy-4-(trifluoromethoxy)picolinoyl)piperazin-1-yl)-7-oxo-[1,2,4]triazolo[1,5-a]pyrimidin-4(7H)-yl)-N-(2-methyl-4-(trifluoromethyl)phenyl)acetamide] |
| 130 | > 10000 | 50 |  |  | CCc1c(N2CCN(C(=O)c3ncccc3O)CC2)c(=O)n2nc(C3=CCCCO3)nc2n1CC(=O)Nc1ccc(C(F)(F)F)cc1 [Example 84, 2-(2-(3,4-dihydro-2H-pyran-6-yl)-5-ethyl-6-(4-(3-hydroxypicolinoyl)piperazin-1-yl)-7-oxo-[1,2,4]triazolo[1,5-a]pyrimidin-4(7H)-yl)-N-(4-(trifluoromethyl)phenyl)acetamide] |
| 250 | > 10000 | 100 |  |  | CCc1c(N2CCN(C(=O)c3ncccc3O)CC2)c(=O)n2nc(C3=CCOCC3)nc2n1CC(=O)Nc1cc(C(F)(F)F)c(Cl)cc1C [Example 103, N-(4-chloro-2-methyl-5-(trifluoromethyl)phenyl)-2-(2-(3,6-dihydro-2H-pyran-4-yl)-5-ethyl-6-(4-(3-hydroxypicolinoyl)piperazin-1-yl)-7-oxo-[1,2,4]triazolo[1,5-a]pyrimidin-4(7H)-yl)acetamide] |
| 10 | > 10000 | 30 |  |  | CCc1c(N2CCN(C(=O)c3ncnc(C)c3O)[C@H]3CC[C@@H]32)c(=O)n2nc(C3=CCOCC3)nc2n1CC(=O)Nc1ccc(C(F)(F)F)cc1Cl [Example 125, N-(2-chloro-4-(trifluoromethyl)phenyl)-2-(2-(3,6-dihydro-2H-pyran-4-yl)-5-ethyl-6-((1 S,6S)-5-(5-hydroxy-6-methylpyrimidine-4-carbonyl)-2,5-diazabicyclo[4.2.0]octan-2-yl)-7-oxo-[1,2,4]triazolo[1,5-a]pyrimidin-4(7H)-yl)acetamide] |
|  |  | 110 | 40 | > 10000 | CCc1c(N2CCN(C(=O)c3nccc(Cl)c3O)CC2)c(=O)n2nc(C3=CC[C@H](OC)CC3)nc2n1CC(=O)Nc1ccc(C(F)(F)F)nc1Cl (single isomer, unassigned) [Example 24a] |
| 1120 | > 10000 | 330 |  |  | CCc1c(N2CCN(C(=O)c3ncccc3O)CC2)c(=O)n2nc(C3=CCC(F)CN3)nc2n1CC(=O)Nc1ccc(C(F)(F)F)cc1C (racemic) [Example 111, rac-2-(5-ethyl-2-(5-fluoro-1,4,5,6-tetrahydropyridin-2-yl)-6-(4-(3-hydroxypicolinoyl)piperazin-1-yl)-7-oxo-[1,2,4]triazolo[1,5-a]pyrimidin-4(7H)-yl)-N-(2-methyl-4-(trifluoromethyl)phenyl)acetamide] |
|  |  | 110 | 30 | > 10000 | CCc1c(N2CCN(C(=O)c3ncnc(C)c3O)[C@@H]3CC[C@@H]32)c(=O)n2nc(C3=CCOCC3)nc2n1CC(=O)Nc1ccc(C(F)(F)F)cc1Cl (single isomer, unassigned) [Example 131] |
| 690 | > 10000 | 80 |  |  | CCc1c(N2CCN(C(=O)c3nc(N4CCN(C)CC4)ncc3O)CC2)c(=O)n2nc(C3=CCOCC3)nc2n1CC(=O)Nc1ccc(C(F)(F)F)cc1C [Example 128, 2-(2-(3,6-dihydro-2H-pyran-4-yl)-5-ethyl-6-(4-(5-hydroxy-2-(4-methylpiperazin-1-yl)pyrimidine-4-carbonyl)piperazin-1-yl)-7-oxo-[1,2,4]triazolo[1,5-a]pyrimidin-4(7H)-yl)-N-(2-methyl-4-(trifluoromethyl)phenyl)acetamide] |
| 80 | 7800 | 50 |  |  | CCc1c(N2CCN(C(=O)c3ncc(Cl)cc3O)CC2)c(=O)n2nc(C3=CCOCC3)nc2n1CC(=O)Nc1ccc(C(F)(F)F)cc1C [Example 65, 2-(6-(4-(5-chloro-3-hydroxypicolinoyl)piperazin-1-yl)-2-(3,6-dihydro-2H-pyran-4-yl)-5-ethyl-7-oxo-[1,2,4]triazolo[1,5-a]pyrimidin-4(7H)-yl)-N-(2-methyl-4-(trifluoromethyl)phenyl)acetamide] |
| 260 | > 10000 | 90 |  |  | CCc1c(N2CCN(C(=O)c3ncccc3O)CC2)c(=O)n2nc(N3CCC[C@H](F)C3)nc2n1CC(=O)Nc1ccc(C(F)(F)F)cc1C [Example 14b, (S)-2-(5-ethyl-2-(3-fluoropiperidin-1-yl)-6-(4-(3-hydroxypicolinoyl)piperazin-1-yl)-7-oxo-[1,2,4]triazolo[1,5-a]pyrimidin-4(7H)-yl)-N-(2-methyl-4-(trifluoromethyl)phenyl)acetamide] |
| 40 | > 10000 | 40 |  |  | CCc1c(N2CCN(C(=O)c3ncncc3O)CC2)c(=O)n2nc(C3=CCOCC3)nc2n1CC(=O)Nc1ccc(S(F)(F)(F)(F)F)cc1Cl [Example 52, N-(2-chloro-4-(pentafluorosulfanyl)phenyl)-2-(2-(3,6-dihydro-2H-pyran-4-yl)-5-ethyl-6-(4-(5-hydroxypyrimidine-4-carbonyl)piperazin-1-yl)-7-oxo-[1,2,4]triazolo[1,5-a]pyrimidin-4(7H)-yl)acetamide] |
| 190 | > 10000 | 80 |  |  | CCc1c(N2CCN(C(=O)c3ncccc3O)CC2)c(=O)n2nc(-c3cccnc3)nc2n1CC(=O)Nc1ccc(C(F)(F)F)cc1C [Example 76, 2-(5-ethyl-6-(4-(3-hydroxypicolinoyl)piperazin-1-yl)-7-oxo-2-(pyridin-3-yl)-[1,2,4]triazolo[1,5-a]pyrimidin-4(7H)-yl)-N-(2-methyl-4-(trifluoromethyl)phenyl)acetamide] |

| Compound | GI50 [1, 4] [nM] | GI50 ([2]; Homo sapiens) [nM] | IC50 [3] [nM] | GI50 [1, 5] [nM] | GI50 [2, 6] [nM] |
| --- | --- | --- | --- | --- | --- |
| CCc1c(N2CCN(C(=O)c3ncccc3O)CC2)c(=O)n2nc(N3CC4CC(C3)O4)nc2n1CC(=O)Nc1ccc(C(F)(F)F)cc1C [Example 21, 2-(2-(6-oxa-3-azabicyclo[3.1.1]heptan-3-yl)-5-ethyl-6-(4-(3-hydroxypicolinoyl)piperazin-1-yl)-7-oxo-[1,2,4]triazolo[1,5-a]pyrimidin-4(7H)-yl)-N-(2-methyl-4-(trifluoromethyl)phenyl)acetamide] | 1070 | > 10000 | 180 |  |  |
